# Measurements from patent US20010005721A1, “Heel crack healing composition and method therefor” (priority 1998, published 2001).
# Tests used:
# [1] = test system: cracks upon the heel and foot; experiment: Trial Study Series A: active ingredient studies 1-4
compound,measurement,setting,value
O=C(O)c1ccccc1O [Salicylic acid],defoliation versus therapeutic benefit,heel cracks; about 10% by weight salicylic acid,effects of rapid defoliation begin to exceed the therapeutic benefits
same,effect of raising the salicylic acid component,heel cracks; salicylic acid over about 6% or 7% by weight,negative results characterized not only by a rapid defoliation of the affected areas
same,effectiveness,[1]; salicylic acid concentration about 4%,most effective concentration
same,effectiveness,[1]; salicylic acid concentration about 5%,also an effective concentration
same,effectiveness / excessive exfoliation,[1]; salicylic acid concentration about 8-9%,not as effective due to excessive exfoliation
same,"effectiveness (exfoliation, healing time)",[1]; salicylic acid concentration less than about 4% in the composition,"generally less effective, promoting less exfoliation and having a lengthened healing time"
[O]=[Zn] [Zinc oxide],healing of cracks upon the heel and foot,[1]; zinc oxide concentration about 3%,optimal concentration
same,healing properties of the composition,[1]; zinc oxide concentration above about 5%,does not appear to affect the healing properties
same,healing,[1]; zinc oxide concentration less than about 1%,some slight decrease in the healing
C[C@]12CCC(=O)C=C1CC[C@@H]1[C@@H]2[C@@H](O)C[C@@]2(C)[C@H]1CC[C@]2(O)C(=O)CO [Hydrocortisone],effectiveness,[1]; hydrocortisone concentration about 0.5% or more,most effective concentrations
same,healing speed,[1]; hydrocortisone concentration greater than about 0.75%,promote a faster healing
same,effectiveness,[1]; hydrocortisone concentration less than about 0.25%,little worthwhile effect
same,effectiveness (healing time),[1]; hydrocortisone concentration less than about 0.5%,"generally less effective, having a lengthened healing time"
